This note sets out measurements from patent publication US20070128217A1 (priority 2003, published 2007).

For test [1], the system named is rabbit serum obtained by immunizing a rabbit with the SARS-CoV strain Frankfurt 1. The test is classed as binding. Set-up: Binding of a rabbit serum to linear peptides / Binding of a rabbit serum to looped peptides / Rabbit serum linear peptides / Rabbit serum looped peptides / Binding of a rabbit serum to linear peptides of protein N of SARS-CoV Urbani (Rabbit serum linear peptides) / Binding of a rabbit serum to looped/cyclic peptides of protein N of SARS-CoV Urbani (Rabbit serum looped peptides): unit not given here.

The subject of test [2] is antibodies in sera from SARS patients (sera 1a, 1b, 2, 6, 37, 62, London, SARS-yellow, SARS-green). The test is classed as binding, human. Also on record: Binding of serum 6 to linear peptides of protein X1 of SARS-CoV Urbani / Binding of serum 37 to linear peptides of protein X1 of SARS-CoV Urbani / Binding of serum 6 to looped/cyclic peptide (PEPSCAN-ELISA) / Binding of serum 37 to looped/cyclic peptide (PEPSCAN-ELISA) / Binding of serum 37 to looped/cyclic peptides of protein X1 of SARS-CoV Urbani / Binding of serum 6 to linear peptides of protein X2 / Binding of serum 37 to linear peptides of protein X2 / Binding of serum 37 to looped/cyclic peptides of protein X2 of SARS-CoV Urbani / Binding of serum 6 to linear peptides of protein M of SARS-CoV Urbani / Binding of serum 37 to linear peptides of protein M of SARS-CoV Urbani / Binding of serum 6 to looped/cyclic peptides of protein M of SARS-CoV Urbani / Binding of serum 37 to looped/cyclic peptides of protein M of SARS-CoV Urbani / Binding of serum 6 to linear peptides of protein X3 of SARS-CoV Urbani / Binding of serum 37 to linear peptides of protein X3 of SARS-CoV Urbani / Binding of serum 37 to looped/cyclic peptides of protein X3 of SARS-CoV Urbani / Binding of serum 6 to linear peptides of protein X4 of SARS-CoV Urbani / Binding of serum 37 to linear peptides of protein X4 of SARS-CoV Urbani / Binding of serum 37 to looped/cyclic peptides of protein X4 of SARS-CoV Urbani / Binding of serum 6 to linear peptides of protein X5 of SARS-CoV Urbani / Binding of serum 37 to linear peptides of protein X5 of SARS-CoV Urbani / Binding of serum 37 to looped/cyclic peptides of protein X5 of SARS-CoV Urbani / Binding of serum 6 to linear peptides of protein N of SARS-CoV Urbani / Binding of serum 37 to linear peptides of protein N of SARS-CoV Urbani / Binding of serum 6 to linear peptide (PEPSCAN-ELISA) / Binding of serum 1a to looped/cyclic peptides of protein N of SARS-CoV Urbani / Binding of serum 1b to looped/cyclic peptides of protein N of SARS-CoV Urbani / Binding of serum 2 to looped/cyclic peptides of protein N of SARS-CoV Urbani / Binding of serum 6 to looped/cyclic peptides of protein N of SARS-CoV Urbani / Binding of serum 37 to looped/cyclic peptides of protein N of SARS-CoV Urbani / Binding of serum 62 to looped/cyclic peptides of protein N of SARS-CoV Urbani / Binding of serum London to looped/cyclic peptides of protein N of SARS-CoV Urbani / Binding of serum SARS-green to looped/cyclic peptides of protein N of SARS-CoV Urbani: unit not given here.

Test [3] concerns control sera (pooled serum of ten healthy LUMC hospital workers; commercial negative donor pooled serum from the Dutch bloodbank). The format is binding, human.

Consider SVLLFLAFVVFLLVT, for which, in test [1], the “Binding of a rabbit serum to linear peptides” value is reported as 0.6 and the “Binding of a rabbit serum to looped peptides” value was found to be 0.2. Also, in test [2], the “Binding of serum 1a to linear peptides of protein E of SARS-CoV Urbani” value was found to be 0.8, the “Binding of serum 1a to looped/cyclic peptides of protein E of SARS-CoV Urbani” value came to 0.6, the “Binding of serum 1b to linear peptides of protein E of SARS-CoV Urbani” value turned out to be 0.7 and the “Binding of serum 1b to looped/cyclic peptides of protein E of SARS-CoV Urbani” value is listed as 0.5. In addition, in test [2], the “Binding of serum 2 to linear peptides of protein E of SARS-CoV Urbani” value was found to be 0.5, the “Binding of serum 2 to looped/cyclic peptides of protein E of SARS-CoV Urbani” value was 0.5, the “Binding of serum 6 to linear peptides of protein E of SARS-CoV Urbani” value amounted to 0.9 and the “Binding of serum 6 to looped/cyclic peptides of protein E of SARS-CoV Urbani” value was 0.4. For the same sequence, in test [2], the “Binding of serum 37 to linear peptides of protein E of SARS-CoV Urbani” value is recorded as 0.8, the “Binding of serum 37 to looped/cyclic peptides of protein E of SARS-CoV Urbani” value is 0.6, the “Binding of serum 62 to linear peptides of protein E of SARS-CoV Urbani” value is recorded as 0.7 and the “Binding of serum 62 to looped/cyclic peptides of protein E of SARS-CoV Urbani” value was 0.6. Also, in test [2], the “Binding of serum London to linear peptides of protein E of SARS-CoV Urbani” value is on record as 0.5, the “Binding of serum London to looped/cyclic peptides of protein E of SARS-CoV Urbani” value came to 0.4, the “Binding of serum SARS-green to linear peptides of protein E of SARS-CoV Urbani” value came out at 0.5 and the “Binding of serum SARS-green to looped/cyclic peptides of protein E of SARS-CoV Urbani” value is listed as 0.6. In test [2], the “Binding of serum SARS-yellow to linear peptides of protein E of SARS-CoV Urbani” value worked out at 0.3 and the “Binding of serum SARS-yellow to looped/cyclic peptides of protein E of SARS-CoV Urbani” value turned out to be 0.6. In test [3], the “Binding of Control Serum Blood-Bank to Looped peptides” value was found to be 0.6, the “Binding of Control serum Blood-bank to linear peptides” value is 0.7, the “Binding of Control serum LUMC to linear peptides” value was 0.5 and the “Binding of Control serum LUMC to looped peptides” value is on record as 0.7.
Consider TALRLCAYCCNIVNV, for which, in test [1], the “Binding of a rabbit serum to linear peptides” value stood at 0.2 and the “Binding of a rabbit serum to looped peptides” value was 0.4. In test [2], the “Binding of serum 1a to linear peptides of protein E of SARS-CoV Urbani” value turned out to be 0.7, the “Binding of serum 1a to looped/cyclic peptides of protein E of SARS-CoV Urbani” value is 0.7, the “Binding of serum 1b to linear peptides of protein E of SARS-CoV Urbani” value is 0.5 and the “Binding of serum 1b to looped/cyclic peptides of protein E of SARS-CoV Urbani” value is 0.4. Further, in test [2], the “Binding of serum 2 to linear peptides of protein E of SARS-CoV Urbani” value was 0.5, the “Binding of serum 2 to looped/cyclic peptides of protein E of SARS-CoV Urbani” value is 0.8, the “Binding of serum 6 to linear peptides of protein E of SARS-CoV Urbani” value is 0.4 and the “Binding of serum 6 to looped/cyclic peptides of protein E of SARS-CoV Urbani” value amounted to 0.6. Further, in test [2], the “Binding of serum 37 to linear peptides of protein E of SARS-CoV Urbani” value turned out to be 0.5, the “Binding of serum 37 to looped/cyclic peptides of protein E of SARS-CoV Urbani” value stood at 0.7, the “Binding of serum 62 to linear peptides of protein E of SARS-CoV Urbani” value is given as 0.5 and the “Binding of serum 62 to looped/cyclic peptides of protein E of SARS-CoV Urbani” value is recorded as 0.9. In test [2], the “Binding of serum London to linear peptides of protein E of SARS-CoV Urbani” value is on record as 0.5, the “Binding of serum London to looped/cyclic peptides of protein E of SARS-CoV Urbani” value is reported as 0.5, the “Binding of serum SARS-green to linear peptides of protein E of SARS-CoV Urbani” value came out at 0.6 and the “Binding of serum SARS-green to looped/cyclic peptides of protein E of SARS-CoV Urbani” value turned out to be 0.7. Moreover, in test [2], the “Binding of serum SARS-yellow to linear peptides of protein E of SARS-CoV Urbani” value was found to be 0.2 and the “Binding of serum SARS-yellow to looped/cyclic peptides of protein E of SARS-CoV Urbani” value amounted to 0.9. Further, in test [3], the “Binding of Control Serum Blood-Bank to Looped peptides” value was 0.7, the “Binding of Control serum Blood-bank to linear peptides” value stood at 0.5, the “Binding of Control serum LUMC to linear peptides” value amounted to 0.6 and the “Binding of Control serum LUMC to looped peptides” value is 0.7.
TLIVNSVLLFLAFVV: in test [1], the “Binding of a rabbit serum to linear peptides” value was 0.1 and the “Binding of a rabbit serum to looped peptides” value is reported as 0.3. Also, in test [2], the “Binding of serum 1a to linear peptides of protein E of SARS-CoV Urbani” value was found to be 0.7, the “Binding of serum 1a to looped/cyclic peptides of protein E of SARS-CoV Urbani” value is listed as 0.6, the “Binding of serum 1b to linear peptides of protein E of SARS-CoV Urbani” value came to 0.5 and the “Binding of serum 1b to looped/cyclic peptides of protein E of SARS-CoV Urbani” value is 0.5. Moreover, in test [2], the “Binding of serum 2 to linear peptides of protein E of SARS-CoV Urbani” value worked out at 0.4, the “Binding of serum 2 to looped/cyclic peptides of protein E of SARS-CoV Urbani” value amounted to 0.7, the “Binding of serum 6 to linear peptides of protein E of SARS-CoV Urbani” value amounted to 0.5 and the “Binding of serum 6 to looped/cyclic peptides of protein E of SARS-CoV Urbani” value is listed as 0.4. Further, in test [2], the “Binding of serum 37 to linear peptides of protein E of SARS-CoV Urbani” value worked out at 0.5, the “Binding of serum 37 to looped/cyclic peptides of protein E of SARS-CoV Urbani” value turned out to be 0.7, the “Binding of serum 62 to linear peptides of protein E of SARS-CoV Urbani” value is on record as 0.3 and the “Binding of serum 62 to looped/cyclic peptides of protein E of SARS-CoV Urbani” value is reported as 0.6. Besides, in test [2], the “Binding of serum London to linear peptides of protein E of SARS-CoV Urbani” value was 0.6, the “Binding of serum London to looped/cyclic peptides of protein E of SARS-CoV Urbani” value was 0.4, the “Binding of serum SARS-green to linear peptides of protein E of SARS-CoV Urbani” value is on record as 0.6 and the “Binding of serum SARS-green to looped/cyclic peptides of protein E of SARS-CoV Urbani” value came to 0.5. In addition, in test [2], the “Binding of serum SARS-yellow to linear peptides of protein E of SARS-CoV Urbani” value amounted to 0.3 and the “Binding of serum SARS-yellow to looped/cyclic peptides of protein E of SARS-CoV Urbani” value worked out at 0.6. Besides, in test [3], the “Binding of Control Serum Blood-Bank to Looped peptides” value was 0.8, the “Binding of Control serum Blood-bank to linear peptides” value is reported as 0.6, the “Binding of Control serum LUMC to linear peptides” value is 0.4 and the “Binding of Control serum LUMC to looped peptides” value is reported as 0.8.
On to VDFQVTIAEILIIIM, for which, in test [1], the “Rabbit serum linear peptides” value amounted to 0.3 and the “Rabbit serum looped peptides” value is 0.3. Also, in test [2], the “Binding of serum 1a to linear peptides of protein X3 of SARS-CoV Urbani” value was found to be 0.8, the “Binding of serum 1a to looped/cyclic peptides of protein X3 of SARS-CoV Urbani” value stood at 0.7, the “Binding of serum 1b to linear peptides of protein X3 of SARS-CoV Urbani” value is on record as 0.5 and the “Binding of serum 1b to looped/cyclic peptides of protein X3 of SARS-CoV Urbani” value stood at 0.4. For the same sequence, in test [2], the “Binding of serum 2 to linear peptides of protein X3 of SARS-CoV Urbani” value was determined as 0.7, the “Binding of serum 2 to looped/cyclic peptides of protein X3 of SARS-CoV Urbani” value worked out at 0.6, the “Binding of serum 6 to linear peptides of protein X3 of SARS-CoV Urbani” value amounted to 0.5 and the “Binding of serum 6 to looped/cyclic peptides of protein X3 of SARS-CoV Urbani” value is on record as 0.3. Also, in test [2], the “Binding of serum 37 to linear peptides of protein X3 of SARS-CoV Urbani” value came out at 0.5, the “Binding of serum 37 to looped/cyclic peptides of protein X3 of SARS-CoV Urbani” value is recorded as 0.6, the “Binding of serum 62 to linear peptides of protein X3 of SARS-CoV Urbani” value came out at 0.6 and the “Binding of serum 62 to looped/cyclic peptides of protein X3 of SARS-CoV Urbani” value was 0.6. For the same sequence, in test [2], the “Binding of serum London to linear peptides of protein X3 of SARS-CoV Urbani” value amounted to 0.6, the “Binding of serum London to looped/cyclic peptides of protein X3 of SARS-CoV Urbani” value was 0.2, the “Binding of serum SARS-green to linear peptides of protein X3 of SARS-CoV Urbani” value is reported as 0.4 and the “Binding of serum SARS-green to looped/cyclic peptides of protein X3 of SARS-CoV Urbani” value is 0.3. For the same sequence, in test [2], the “Binding of serum SARS-yellow to linear peptides of protein X3 of SARS-CoV Urbani” value is recorded as 0.6 and the “Binding of serum SARS-yellow to looped/cyclic peptides of protein X3 of SARS-CoV Urbani” value came out at 0.8. Besides, in test [3], the “Binding of Control Serum Blood-Bank to Looped peptides of the protein X3 of SARS-CoV Urbani” value is listed as 0.6, the “Binding of Control serum Blood-bank to linear peptides of the protein X3 of SARS-CoV Urbani” value is listed as 0.8, the “Binding of Control serum LUMC to linear peptides of the protein X3 of SARS-CoV Urbani” value turned out to be 0.8 and the “Binding of Control serum LUMC to looped peptides of the protein X3 of SARS-CoV Urbani” value is reported as 0.8.
